Two molecules from patent publication US20260345584A1, “METHODS AND PHARMACEUTICAL COMPOSITIONS FOR TREATING CHEMOTHERAPY-INDUCED PERIPHERAL NEUROPATHY WITH EG5 INHIBITORS” (UNIVERSITY OF MIAMI, priority 2023, published 2026) can be followed below.

Molecules are shown by their SMILES.

The subject of one data set is nox1. As to the kind of experiment: Nox1 immunofluorescence: subcellular translocation in keratinocytes. The data set is classed as in vivo, zebrafish. The following applies: EMD534085 alone, 96 hr. As for the experimental part: The stock solution was divided into 20-30 μl aliquots and stored at −20 °C until use (maximal 6 months). Immediately prior to use, paclitaxel was diluted in Ringer's solution and added to dechorionated larval zebrafish. The larval fish were placed individually or in small groups into wells of a 12-well plate containing the treatment solutions. The control group was 0.05% DMSO. Plates were incubated at 28.5 °C and protected from light. Treatment lengths are indicated in the Drawings, Description of the Drawings, and Examples where appropriate. […] EMD534085, Eg5 inhibitor (MedChemExpress, Cat. No. HY-15000) was diluted in 100% DMSO to make a 10 mM stock solution and stored at −20 °C. […] The solutions were exchanged every 48 hr. […]
Measurements were determined by measuring fluorescence intensity in Fiji using single slice and single channel modes. First, a line using the line tool was placed along the plasma membrane that was clearly distinguishable from the cytoplasm due to increased fluorescence compared with the cytoplasm in all treatment groups. The measurement tool was subsequently selected to measure the mean fluorescence intensity. […] To determine the mean cytoplasmic fluorescence intensity, nuclei were first overlaid with Nox1 fluorescence to ensure the exclusion of nuclear measurements. […] The fluorescence data was exported to Excel and the ratios calculated.

In the next data set the test system is axonal microtubules. The data set can be described thus: Axonal detyrosination (GluTub) along axon segments in distal caudal fin. The following applies: EMD534085 alone, wildtype, 96 hr. It counts as in vivo, zebrafish. As for the experimental part:
Larval fish were transferred into […] glass vials and fixed in 4% paraformaldehyde (PFA)/1× Phosphate-buffered saline (PBS) for 1.5 hr at room temperature, with gentle rocking. Following a 5-minute incubation in 1×PBS+0.1% Tween-20 (PBST), zebrafish were permeabilized in 1×PBS+0.1% Triton X-100 for 10-30 min. Larval fish were transferred into 2 ml reaction tubes and incubated in blocking buffer (1×PBST+5% BSA) for 30 min at room temperature, with rocking. Larval fish were further incubated overnight in antibody solution (Millipore Sigma, Cat. No. AB3201, 1:300 rabbit anti-GluTub; Sigma, Cat No. T6793, 1:500 mouse anti-acetylated tubulin) in blocking buffer at 4 °C, on a rotator. The next morning, larval fish were transferred into 6-well plates and washed 4×15 min in 1×PBST at room temperature, with rocking. […]
Axon branch number quantifications were performed by drawing a 50 μm line across the dorsal, medial, and ventral caudal fin edge region at a distance of 100 μm parallel to the fin edge (which was determined to be the most reliable region to quantify distal branch numbers). Axons traversing this line were counted and averaged per treatment group. Axonal fluorescence measurements were taken using the Imaris Spots function by manually placing spots along the axon and using the fluorescence intensity profile measurements MatLab tool.

The next data set relates to peripheral neuropathy. The data set can be described thus: von Frey behavioral testing. The data set is classed as in vivo, mouse. The following applies: mice, 2 mg/kg paclitaxel i.p. x4. The source says:
Molecular mechanisms underlying paclitaxel-induced microtubule fasciculation were then investigated. […] Peripheral neuropathy was correlated with these times points using von Frey behavioral testing, which determined that peak neuropathy was present at day 7 (D7). This identified several biological categories during peak neuropathy with the largest clusters being implicated in extracellular matrix organization (e.g. “ECM”, “collagen-containing ECM”, “collagen trimer”) and cell cycle regulation (e.g. “outer kinetochore”, “kinesin complex”, condensed chromosome, centromeric region”, “mitotic spindle”, “microtubules”), consistent with our findings in zebrafish. Interactome analysis using STRING (Szklarczyk et al., 2021, Nucl. Acids Res 49: D605-D612) to predict protein association networks further identified major clusters involved in cell cycle regulation, which contained various kinesins, microtubule and nucleus regulators, as well as one cluster annotated as “disulfide bond”, consistent with a role for oxidative signal activation (Leonard et al., 2011, Current opinion in chemical biology 15: 88-102) (shown in FIG. 3D).

In the next data set the test system is mmp13a. The data set can be described thus: qPCR mmp13 expression, whole larvae. The data set is classed as in vivo, zebrafish. The settings on record: wildtype, 48 hr paclitaxel. As for the experimental part:
Zebrafish larvae (AB/Nacre) were treated in pools of ~20-30 larvae per treatment per biological replicate (BR); each BR consisted of embryos from distinct parents. Larvae were collected into 1.5 ml reaction tubes post-treatment and RNA extraction was performed using the rNeasy Plus Micro kit (Qiagen, Cat. No. 74034). cDNA was synthesized from ~300 ng total RNA using the Superscript IV VILO kit (Thermo Fisher, Cat. No. 11756050). Primers in target genes were designed wherein primers annealed in two exons separated by one or several large introns that could not be amplified with the selected PCR settings, to avoid genomic DNA contamination. Quantitative PCR was performed with the Applied Biosystems QuantStudio 3 using PowerUp SYBR Green (ThermoFisher, Cat No. A25741). Amplification signals for expressed target genes were normalized to zebrafish 18S rRNA signals. qPCR conditions were used as follows: 95 °C for 10 minutes, 40 cycles of 95 °C for 15 seconds, 50 °C for 30 seconds, 72 °C for 30 seconds. Each biological replicate was run in quadruplicate. Data were presented as relative expression compared to control using the delta-vdelta Ct (2^^-ΔΔCt) method.
Stretching was performed after 96 hr treatment, followed by 2 hr post-stretch fixation, and staining for detection of acetylated tubulin in axons.

On to `CN(C)CCNC(=O)NC[C@H]1CC[C@@H]2[C@H](O1)c1cc(C(F)(F)F)ccc1N[C@H]2c1ccccc1` [EMD534085], for which, in the data set with nox1, the “Nox1 Membrane:cytoplasmic ratio” value is on record as 1.7±0.1 and the “Nox1 Nucleus:cytoplasmic ratio” value is given as 1.36±0.08. Further, in the data set with axonal microtubules, the “normalized GluTub intensity ratios (axon)” value is 2.13±0.13.

`CC(=O)O[C@H]1C(=O)[C@@]2(C)[C@H]([C@H](OC(=O)c3ccccc3)[C@]3(O)C[C@H](OC(=O)[C@H](O)[C@@H](NC(=O)c4ccccc4)c4ccccc4)C(C)=C1C3(C)C)[C@]1(OC(C)=O)CO[C@@H]1C[C@@H]2O` [paclitaxel]: the “day of peak neuropathy” value in the data set on peripheral neuropathy worked out at 7 days. For the same molecule, the mmp13 expression entry in the data set with mmp13a is “increased mmp13 expression”.
